Our source for the IC50 values is patent US20200016159A1, “N3-CYCLICALLY SUBSTITUTED THIENOURACILS AND USE THEREOF” (Bayer Aktiengesellschaft, priority 2016, published 2020).

The test deals with T1, human adenosine A2b receptor (Homo sapiens, UniProt P29275).
T1 sequence (P29275 1-332): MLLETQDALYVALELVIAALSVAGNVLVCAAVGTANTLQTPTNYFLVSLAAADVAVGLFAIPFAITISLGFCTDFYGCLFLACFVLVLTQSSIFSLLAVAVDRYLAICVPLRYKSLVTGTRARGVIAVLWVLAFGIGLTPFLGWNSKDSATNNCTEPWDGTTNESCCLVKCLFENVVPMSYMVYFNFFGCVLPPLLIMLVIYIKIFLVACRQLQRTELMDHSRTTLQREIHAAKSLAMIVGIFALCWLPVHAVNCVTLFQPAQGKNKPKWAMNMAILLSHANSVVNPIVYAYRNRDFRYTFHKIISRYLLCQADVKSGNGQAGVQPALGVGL
Kind of test: Cellular in vitro reporter gene test for A2b receptor activity (antagonism of NECA). It counts as cell-based. Further details: expressed in transfected cells; host or cells: CHO-K1 (Chinese hamster ovary) with CRE-luciferase reporter. The note with it: recombinant CHO-K1 cells, CRE-luciferase reporter, co-incubation with EC50 concentration of NECA, 3 hours. A digest of the protocol: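 CHO-K1 cells expressing recombinant human A2b receptor plus a CRE-driven firefly luciferase reporter. Compounds co-incubated with NECA at its same-day EC50 concentration; luminescence read 3 hours after NECA addition. IC50 values, sometimes means of several determinations rounded to two significant figures.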

Take `Cc1c(Cn2nc[nH]c2=O)sc2c1c(=O)n(C1(C)CC1)c(=O)n2C` [Example 53, 1,5-Dimethyl-3-(1-methylcyclopropyl)-6-[(5-oxo-4,5-dihydro-1H-1,2,4-triazol-1-yl)methyl]thieno[2,3-d]pyrimidine-2,4(1H,3H)-dione]: the IC50 – broadly, the midpoint of a concentration-inhibition curve – was 0.12 µM. The same measure for `CCCCn1c(=O)n(C2(C)CC2)c(=O)c2c(C)c(CN3CCNC3=O)sc21` [Example 54, 1-Butyl-5-methyl-3-(1-methylcyclopropyl)-6-[(2-oxoimidazolidin-1-yl)methyl]thieno[2,3-d]pyrimidine-2,4(1H,3H)-dione]: 0.0075 µM; for `CCCCn1c(=O)n(C2(C)CC2)c(=O)c2c(C)c(Cn3nc[nH]c3=O)sc21` [Example 55, 1-Butyl-5-methyl-3-(1-methylcyclopropyl)-6-[(5-oxo-4,5-dihydro-1H-1,2,4-triaiazol-1-yl)methyl]thieno[2,3-d]pyrimidine-2,4(1H,3H)-dione]: 0.049 µM. The same measure for `Cc1c(CN2CCNC2=O)sc2c1c(=O)n(C1(C)CC1)c(=O)n2CCC(F)(F)F` [Example 56, 5-Methyl-3-(1-methylcyclopropyl)-6-[(2-oxoimidazolidin-1-yl)methyl]-1-(3,3,3-trifluoropropyl)thieno[2,3-d]pyrimidine-2,4(1H,3H)-dione]: 0.0036 µM. Then `Cc1c(CN2CCNC2=NC#N)sc2c1c(=O)n(C1(C)CC1)c(=O)n2CCC(F)(F)F` [Example 57, [1-{[5-Methyl-3-(1-methylcyclopropyl)-2,4-dioxo-1-(3,3,3-trifluoropropyl)-1,2,3,4-tetrahydrothieno[2,3-d]pyrimidin-6-yl]methyl}imidazolidin-2-ylidene]cyanamide], with 0.0044 µM; and `COC(=O)N=C1NCCN1Cc1sc2c(c1C)c(=O)n(C1(C)CC1)c(=O)n2CCC(F)(F)F` [Example 58, Methyl [1-{[5-methyl-3-(1-methylcyclopropyl)-2,4-dioxo-1-(3,3,3-trifluoropropyl)-1,2,3,4-tetrahydrothieno[2,3-d]pyrimidin-6-yl]methyl}imidazolidin-2-ylidene]carbamate], with 0.01 µM; and `Cc1c(CN2CCNC(=O)C2=O)sc2c1c(=O)n(C1(C)CC1)c(=O)n2CCC(F)(F)F` [Example 59, 6-[(2,3-Dioxopiperazin-1-yl)methyl]-5-methyl-3-(1-methylcyclopropyl)-1-(3,3,3-trifluoropropyl)thieno[2,3-d]pyrimidine-2,4(1H,3H)-dione], with 0.0093 µM.

With `Cc1c(Cn2nc[nH]c2=O)sc2c1c(=O)n(C1(C)CC1)c(=O)n2CCC(F)(F)F` [Example 60, 5-Methyl-3-(1-methylcyclopropyl)-6-[(5-oxo-4,5-dihydro-1H-1,2,4-triazol-1-yl)methyl]-1-(3,3,3-trifluoropropyl)thieno[2,3-d]pyrimidine-2,4(1H,3H)-dione], the IC50 stood at 0.015 µM.

In the case of `Cc1c(CN2CCNC2=O)sc2c1c(=O)n(C1(C)CC1)c(=O)n2CC1CCC1` [Example 61, 1-(Cyclobutylmethyl)-5-methyl-3-(1-methylcyclopropyl)-6-[(2-oxoimidazolidin-1-yl)methyl]thieno[2,3-d]pyrimidine-2,4(1H,3H)-dione], the IC50 amounted to 0.0054 µM.

Turning to `Cc1c(Cn2nc[nH]c2=O)sc2c1c(=O)n(C1(C)CC1)c(=O)n2CC1CCC1` [Example 62, 1-(Cyclobutylmethyl)-5-methyl-3-(1-methylcyclopropyl)-6-[(5-oxo-4,5-dihydro-1H-1,2,4-triazol-1-yl)methyl]thieno[2,3-d]pyrimidine-2,4(1H,3H)-dione], the IC50 is 0.065 µM. The same measure for `Cc1c(Cn2nc[nH]c2=O)sc2c1c(=O)n(C1(C)CC1)c(=O)n2CC#N` [Example 69, [5-Methyl-3-(1-methylcyclopropyl)-2,4-dioxo-6-[(5-oxo-4,5-dihydro-1H-1,2,4-triazol-1-yl)methyl]-3,4-dihydrothieno[2,3-d]pyrimidin-1(2H)-yl]acetonitrile]: 0.12 µM. Then `COCCn1c(=O)n(C2(C)CC2)c(=O)c2c(C)c(CN3CCNC3=NC#N)sc21` [Example 71, [1-{[1-(2-Methoxyethyl)-5-methyl-3-(1-methylcyclopropyl)-2,4-dioxo-1,2,3,4-tetrahydrothieno[2,3-d]pyrimidin-6-yl]methyl}imidazolidine-2-ylidene]cyanamide], with 0.012 µM. Then `COCCn1c(=O)n(C2(C)CC2)c(=O)c2c(C)c(CN3CCNC3=NC(=O)OC)sc21` [Example 72, Methyl [1-{[1-(2-methoxyethyl)-5-methyl-3-(1-methylcyclopropyl)-2,4-dioxo-1,2,3,4-tetrahydrothieno[2,3-d]pyrimidin-6-yl]methyl}imidazolidine-2-ylidene]carbamate], with 0.015 µM; and `COCCn1c(=O)n(C2(C)CC2)c(=O)c2c(C)c(CN3CCNC(=O)C3=O)sc21` [Example 73, 6-[(2,3-Dioxopiperazin-1-yl)methyl]-1-(2-methoxyethyl)-5-methyl-3-(1-methylcyclopropyl)thieno[2,3-d]pyrimidine-2,4(1H,3H)-dione], with 0.029 µM. As for `COCCn1c(=O)n(C2(C)CC2)c(=O)c2c(C)c(Cn3nc[nH]c3=O)sc21` [Example 74, 1-(2-Methoxyethyl)-5-methyl-3-(1-methylcyclopropyl)-6-[(5-oxo-4,5-dihydro-1H-1,2,4-triazol-1-yl)methyl]thieno[2,3-d]pyrimidine-2,4(1H,3H)-dione], the 50% inhibitory concentration (IC50) turned out to be 0.086 µM. Then `Cc1c(CN2CCNC2=O)sc2c1c(=O)n(C1(C)CC1)c(=O)n2CCOC(F)(F)F` [Example 75, 5-Methyl-3-(1-methylcyclopropyl)-6-[(2-oxoimidazolidin-1-yl)methyl]-1-[2-(trifluormethoxy)ethyl]thieno[2,3-d]pyrimidine-2,4(1H,3H)-dione], with 0.0033 µM; and `CCOCCn1c(=O)n(C2(C)CC2)c(=O)c2c(C)c(CN3CCNC3=O)sc21` [Example 77, 1-(2-Ethoxyethyl)-5-methyl-3-(1-methylcyclopropyl)-6-[(2-oxoimidazolidin-1-yl)methyl]thieno[2,3-d]pyrimidine-2,4(1H,3H)-dione], with 0.077 µM.

Take `CCOCCn1c(=O)n(C2(C)CC2)c(=O)c2c(C)c(Cn3nc[nH]c3=O)sc21` [Example 78, 1-(2-Ethoxyethyl)-5-methyl-3-(1-methylcyclopropyl)-6-[(5-oxo-4,5-dihydro-1H-1,2,4-triazol-1-yl)methyl]thieno[2,3-d]pyrimidine-2,4(1H,3H)-dione]: the half-maximal inhibitory concentration (IC50) turned out to be 0.56 µM. Then `Cc1c(CN2CCNC2=O)sc2c1c(=O)n(C1(C)CC1)c(=O)n2CCOC(C)C` [Example 79, 1-(2-Isopropoxyethyl)-5-methyl-3-(1-methylcyclopropyl)-6-[(2-oxoimidazolidin-1-yl)methyl]thieno[2,3-d]pyrimidine-2,4(1H,3H)-dione], with 0.11 µM; and `Cc1c(Cn2nc[nH]c2=O)sc2c1c(=O)n(C1(C)CC1)c(=O)n2CCOC(C)C` [Example 80, 1-(2-Isopropoxyethyl)-5-methyl-3-(1-methylcyclopropyl)-6-[(5-oxo-4,5-dihydro-H-1,2,4-triazol-1-yl)methyl]thieno[2,3-d]pyrimidine-2,4(1H,3H)-dione], with 0.74 µM. Then `Cc1c(CN2CCNC2=O)sc2c1c(=O)n(C1(C)CC1)c(=O)n2C[C@H]1CCCO1` [Example 81, 5-Methyl-3-(1-methylcyclopropyl)-6-[(2-oxoimidazolidin-1-yl)methyl]-1-[(2R)-tetrahydrofuran-2-ylmethyl]thieno[2,3-d]pyrimidine-2,4(1H,3H)-dione], with 0.039 µM; and `Cc1c(CN2CCNC2=O)sc2c1c(=O)n(C1(C)CC1)c(=O)n2C[C@@H]1CCCO1` [Example 82, 5-Methyl-3-(1-methylcyclopropyl)-6-[(2-oxoimidazolidin-1-yl)methyl]-1-[(2S)-tetrahydrofuran-2-ylmethyl]thieno[2,3-d]pyrimidine-2,4(1H,3H)-dione], with 0.077 µM; and `Cc1c(Cn2nc[nH]c2=O)sc2c1c(=O)n(C1(C)CC1)c(=O)n2C[C@H]1CCCO1` [Example 83, 5-Methyl-3-(1-methylcyclopropyl)-6-[(5-oxo-4,5-dihydro-1H-1,2,4-triazol-1-yl)methyl]-1-[(2R)-tetrahydrofuran-2-ylmethyl]thieno[2,3-d]pyrimidine-2,4(1H, 3H)-dione], with 0.13 µM. Then `Cc1c(Cn2nc[nH]c2=O)sc2c1c(=O)n(C1(C)CC1)c(=O)n2C[C@@H]1CCCO1` [Example 84, 5-Methyl-3-(1-methylcyclopropyl)-6-[(5-oxo-4,5-dihydro-1H-1,2,4-triazol-1-yl)methyl]-1-[(2S)-tetrahydrofuran-2-ylmethyl]thieno[2,3-d]pyrimidine-2,4(1H,3H)-dione], with 0.46 µM. With `COCCn1c(=O)n(C2(C(F)(F)F)CC2)c(=O)c2c(C)c(CN3CCNC3=O)sc21` [Example 85, 1-(2-Methoxyethyl)-5-methyl-6-[(2-oxoimidazolidin-1-yl)methyl]-3-[1-(trifluoromethyl)cyclopropyl]thieno[2,3-d]pyrimidine-2,4(1H,3H)-dione], the IC50 came to 0.31 µM. The same measure for `COCCn1c(=O)n(C2(C(F)(F)F)CC2)c(=O)c2c(C)c(CN3CCNC3=NC#N)sc21` [Example 86, [1-({1-(2-Methoxy ethyl)-5-methyl-2,4-dioxo-3-[1-(trifluoromethyl)cyclopropyl]-1,2,3,4-tetrahydrothieno[2,3-d]pyrimidin-6-yl}methyl)imidazolidin-2-ylidene]cyanamide]: 0.27 µM.
